Publication PMC7771553 (Journal of medicinal chemistry, 2017)
Entries after “also recorded” stand apart in the source; their conditions may differ. Where two headings read alike, the source gives them in different places.

Key:
bromodomains = details: cited from earlier work
MDA-MB-231 cells [1] = details: for dose dependence of the cellular uptake: 10% FBS (1 and 2) or 5% FBS (3 and 4); for intracellular concentration relative to the input concentration: 24 h, volume of one million cells about 5.5 μL; for incubation time to maximum intracellular concentration: MDA-MB-231 cells; for intracellular moles relative to that of 4: 5% FBS
MDA-MB-231 cells [2] = format: in vitro ADME; details: for nonspecific binding, 4 °C incubation (decrease of intracellular concentration): 6 h, compared with direct solvent extraction
[3] = Cell-absent control: nonspecific binding with the cell culture plate; format: in vitro ADME; details: input 10, 20, 2, 20 μM for 1–4
[4] = Parallel artificial membrane permeability assay; format: in vitro ADME; details: PAMPA
MDA-MB-231 cells [5] = details: MDA-MB-231, 24 h; input 10, 20, 2, 20 μM for 1–4
[6] = Stability in DMEM media with or without 10% FBS; format: physicochemical; details: 72 h, negligible difference between samples with and without serum

Row | SMILES | inhibitory activities in cell-based NanoBRET assays (bromodomains) | dose dependence of the cellular uptake (MDA-MB-231 cells [1]; 6 h) | nonspecific binding, 4 °C incubation (decrease of intracellular concentration) (MDA-MB-231 cells [2]) | nonspecific binding to the plates, percent of input concentration [3] | intracellular concentration relative to the input concentration (MDA-MB-231 cells [1]; input 10, 20, 2, 20 μM for 1–4) | incubation time to maximum intracellular concentration (MDA-MB-231 cells [1]) | further results
1 | CC(=O)c1cc(-c2cc(C(=O)NC3CC3)ccc2C)c2ncccn12 [Compound 1, TP-472, reference compound] | submicromolar | first order | 77% | 1% | – | – | permeability through the artificial membrane [4]: good permeability
2 | Cc1cc2c(cc1N1C(=O)c3cccc4c(CCCO)ccc(c34)C1=O)n(C)c(=O)n2C [Compound 2, BAY-299, reference compound] | submicromolar | first order | – | – | – | – | increase in inhibitor cellular uptake (MDA-MB-231 cells [1]; 10-time increase in the input concentration (20–200 μM), 6 h): 13 times; cellular uptake (percent of the compound accumulated in the cells) (MDA-MB-231 cells [5]): < 1%
3 | Cl.Cl.O=C(c1cc(F)cc(N2CCNCC2)c1)N1CCN(C(=O)c2ccc(O[C@H]3CCNC3)c(C3CCCCC3)c2)CC1 [Compound 4] | – | plateaued when the input concentration was increased from 20 to 200 μM; also recorded: saturated at input concentrations >20 μM | 4% | 1% | ~65 times | 3 to 6 h | compound remaining (percent of the initial concentration) [6]: about 85%; rate of decrease of intracellular moles (MDA-MB-231 cells [1]; input 20 μM, over 72 h, first order): about 85.5 ± 8.2 pmol/(million cells × h); time dependence of intracellular moles (metabolic stability in cells) (MDA-MB-231 cells [1]; over 72 h, input 10, 20, 2, 20 μM for 1–4): less stable
4 | CCOC(=O)CCCn1c2ccccc2c2nc3nonc3nc21 [Compound 8] | – | – | – | – | – | – | cell-bound inhibitors at 4 °C (MDA-MB-231 cells [2]): little or no nonspecific binding
5 | Cl.Cl.O=C(Nc1ccc(O[C@H]2CCNC2)c(-c2ccc(F)cc2)c1)c1ccc(O[C@H]2CCNC2)c(-c2ccc(F)c(F)c2)c1 [Compound 3] | – | logarithmic pattern (saturation kinetics) | 15% | – | about 600 times | 3 to 6 h | cell permeability relative to 4 (MDA-MB-231 cells [1]; equal input concentrations compared (Figure 6)): 1.7 times; intracellular moles relative to that of 4 (MDA-MB-231 cells [1]; input concentration 2 μM, 6 h): 1.9 times; intracellular moles relative to that of 4 (MDA-MB-231 cells [1]; input concentration 20 μM, 6 h): 1.5 times
